Each block holds one compound with its values, some of them ahead of it.
Key:
LPA1 receptor [1] = molecular target: T1, LPA1 receptor (Mus musculus, UniProt P61793); assay: LPA1 receptor phosphorylation ([32P]Pi labeling, immunoprecipitation); assay type: cell-based
T1 construct: expressed in transfected cells
Description: (§1) The procedure was very similar to that previously described to study LPA1 receptor phosphorylation. In brief, cells were incubated in phosphate-free Dulbecco’s modified Eagle’s medium containing 100 μCi/ml [^32P]Pi for 3 h at 37°C. LPA1- and LPA2-expressing cells were cultured in 6 well plates, whereas those expressing LPA3 receptors were cultured in 10 cm dishes. Labeled cells were stimulated with the agents tested and then washed twice with ice-cold phosphate buffered saline and solubilized in buffer containing 10 mM Tris, 150 mM NaCl, 1% sodium cholate, 1% Nonident P40, protease and phosphatase inhibitors, pH 7.4 [11, 12, 14]. The lysates were incubated overnight with protein A-agarose and anti-GFP serum with constant agitation at 4°C. Samples were washed and the pellets containing the immunocomplexes were solubilized in Laemmli’s sample buffer containing 5% β-mercaptoethanol. Proteins were separated using 10% SDS-PAGE and electrotransferred onto polyvinyliden fluoride membranes. Receptor phosphorylation was analyzed with a Molecular Dynamics Typhoon PhosphorImager and the ImageJ software (http://rsb.info.nih.gov/ij/).

ERK 1/2 = ERK 1/2 phosphorylation (Western blotting) in C9 cells overexpressing LPA1-3; assay type: cell-based, rat
Description: Cells were cultured to near confluence in 6 well plates and stimulated with the agents tested for the times indicated. Total cellular extracts were obtained by lysing the cells in Laemmli’s sample buffer containing 5% β-mercaptoethanol. The cell extracts were subject to 10% SDS-PAGE and transferred to nitrocellulose membranes. Membranes from samples obtained in parallel were incubated overnight at 4°C, with anti-pERK 1/2 (1:2000) or anti ERK 1/2 (1:2000). The membranes were washed and incubated for 1 h at room temperature with a horseradish peroxidase-conjugated secondary antibody (1:10,000) for enhanced chemiluminescence detection.

LPA3 receptor [2] = molecular target: T2, LPA3 receptor (Homo sapiens, UniProt Q9UBY5); assay: LPA3 receptor phosphorylation ([32P]Pi labeling, immunoprecipitation); assay type: cell-based
T2 sequence (Q9UBY5 1-353): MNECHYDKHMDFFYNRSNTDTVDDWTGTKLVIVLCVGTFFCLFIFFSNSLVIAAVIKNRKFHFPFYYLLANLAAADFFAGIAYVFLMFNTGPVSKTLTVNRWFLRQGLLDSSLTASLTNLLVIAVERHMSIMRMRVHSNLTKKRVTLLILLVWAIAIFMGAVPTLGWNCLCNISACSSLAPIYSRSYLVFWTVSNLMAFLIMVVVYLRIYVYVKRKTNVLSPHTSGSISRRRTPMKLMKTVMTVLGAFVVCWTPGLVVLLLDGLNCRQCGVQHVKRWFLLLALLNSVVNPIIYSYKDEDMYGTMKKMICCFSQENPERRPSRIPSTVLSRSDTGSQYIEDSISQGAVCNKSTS

LPA2 receptor [3] = molecular target: T3, LPA2 receptor (Homo sapiens, UniProt Q9HBW0); assay: LPA2 receptor phosphorylation ([32P]Pi labeling, immunoprecipitation); assay type: cell-based
Description: as §1

LPA1 receptor [4] = molecular target: T1, LPA1 receptor; assay: Intracellular calcium concentration response to LPA, C9 cells overexpressing LPA1; assay type: cell-based
Description: (§2) C9 cells (Clone 9, rat hepatic epithelial cells, CRL-1439™), obtained directly from American Type Culture Collection, were cultured in Ham’s F12 Kaighn’s modification medium supplemented with 10% fetal bovine serum, 100 μg/ml streptomycin, 100 units/ml penicillin and 0.25 μg/ml amphotericin B at 37°C under a 95% air and 5% CO2 atmosphere, as described previously. The medium was replaced with one containing 1% fetal bovine serum, 12–16 h before the experiment. C9 cells stably expressing the mouse LPA1 receptor fused at the carboxyl termini with eGFP were those previously described. […] As depicted in”Fig A in S1 File”, expression of LPA1 and LPA2 receptors was similar (~80%) whereas that of LPA3 was consistently lower (~60%), as evidenced by fluorescence imaging and flow cytometry. Flow cytometry was performed using an Attune NxT Acoustic Focusing Cytometer, employing excitation of 488 nm; data were analyzed using the Attune cytometric software included with the equipment.
(§3) This procedure has been described previously. […] Determinations were carried in an AMINCO-Bowman Series 2 luminescence spectrometer, employing 340 and 380 nm excitation wavelengths and an emission wavelength of 510 nm; chopper interval was 0.5 sec. The intracellular calcium concentration was calculated as described by Grynkiewicz et al.. […]

wild-type C9 cells = assay: Intracellular calcium concentration response to LPA, wild type C9 cells; assay type: cell-based, rat
Description: as §2, §3

LPA2 receptor [5] = molecular target: T3, LPA2 receptor; assay: Heterologous (PMA) / homologous (LPA) desensitization of LPA-induced calcium response, LPA2 cells; assay type: cell-based; conditions: preincubation 10 min, washed, challenge 1 μM LPA, LPA2 cells
Description: (§4) This procedure has been described previously. Briefly, cells were loaded with 2.5 μM Fura-2 AM in Krebs–Ringer–Hepes containing 0.05% bovine serum albumin (pH 7.4) for 1 h at 37°C and then washed to eliminate unincorporated indicator. Determinations were carried in an AMINCO-Bowman Series 2 luminescence spectrometer, employing 340 and 380 nm excitation wavelengths and an emission wavelength of 510 nm; chopper interval was 0.5 sec. The intracellular calcium concentration was calculated as described by Grynkiewicz et al.. In the experiments where prolonged incubation was required (resensitization studies), cells were stimulated, washed, and the incubation was continued in the presence of Fura-2 AM, to avoid dye depletion.
(§5) Agonists-mediated decreases occurred in a concentration-dependent fashion, with a maximum at the concentration of ~ 100 nM. […] It is worth noticing that the shift in the curves was more pronounced in LPA1- or LPA3-expressing cells, than in those that expressed the LPA2 subtype.
(§6) Plotted are the increases in calcium as the percentage of that obtained in cells preincubated without any agent as mean ± S. E. M. of 6 experiments using different cell preparations.

LPA2 receptor [6] = molecular target: T3, LPA2 receptor; assay: Intracellular calcium concentration response to LPA, C9 cells overexpressing LPA2; assay type: cell-based
Description: as §2, §3

LPA3 receptor [7] = molecular target: T2, LPA3 receptor; assay: LPA3 receptor internalization, confocal imaging; assay type: cell-based; conditions: LPA3 cells
Description: (§7) Cells were seeded at approximately 30% confluence onto glass-bottomed Petri dishes and cultured for 3 h at 37°C in media containing 1% serum. After treatment, cells were washed three times with phosphate buffered saline and fixed with 4% paraformaldehyde in 0.1 M phosphate buffer for 20 min at room temperature; samples were then washed three additional times with phosphate buffered saline. The fluorescent images were acquired with an Olympus Fluoview FV10 confocal microscope with a water-immersion objective (60X). To determine receptor internalization, the plasma membrane was delineated utilizing the differential interference contrast imaging, and fluorescence in this region was quantified employing the ImageJ software. At least 5 or 6 images of different cultures were taken for each condition. Data were normalized as follows: for each experiment, fluorescence (arbitrary units) at the plasma membrane of baseline samples were pooled and the average was considered as 100%.

LPA1 receptor [8] = molecular target: T1, LPA1 receptor; assay: LPA1 receptor internalization, confocal imaging; assay type: cell-based; conditions: LPA1 cells
Description: as §7

LPA2 receptor [9] = molecular target: T3, LPA2 receptor; assay: LPA2 receptor internalization, confocal imaging; assay type: cell-based; conditions: LPA2 cells
Description: as §7

LPA1 receptor [10] = molecular target: T1, LPA1 receptor; assay: Heterologous (PMA) / homologous (LPA) desensitization of LPA-induced calcium response, LPA1 cells; assay type: cell-based; conditions: preincubation 10 min, washed, challenge 1 μM LPA, LPA1 cells
Description: as §4, §5, §6

LPA3 receptor [11] = molecular target: T2, LPA3 receptor; assay: Heterologous (PMA) / homologous (LPA) desensitization of LPA-induced calcium response, LPA3 cells; assay type: cell-based; conditions: preincubation 10 min, washed, challenge 1 μM LPA, LPA3 cells
Description: as §4, §5, §6

LPA3 receptor [12] = molecular target: T2, LPA3 receptor; assay: Intracellular calcium concentration response to LPA, C9 cells overexpressing LPA3; assay type: cell-based; conditions: cells over-expressing LPA3
[13] = 1 μM LPA 10 min, washed, incubated to 60 or 120 min

T1 sequence (P61793 whole entry): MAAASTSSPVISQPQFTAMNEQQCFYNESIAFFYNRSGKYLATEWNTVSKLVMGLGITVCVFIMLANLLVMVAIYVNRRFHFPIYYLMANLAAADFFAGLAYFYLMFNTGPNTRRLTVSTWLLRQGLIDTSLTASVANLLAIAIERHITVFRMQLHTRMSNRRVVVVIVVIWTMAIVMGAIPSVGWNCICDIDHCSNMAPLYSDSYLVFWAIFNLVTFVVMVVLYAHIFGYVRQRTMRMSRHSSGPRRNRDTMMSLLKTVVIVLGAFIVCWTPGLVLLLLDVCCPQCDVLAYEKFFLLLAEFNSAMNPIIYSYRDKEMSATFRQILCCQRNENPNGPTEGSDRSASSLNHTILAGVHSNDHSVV
T3 sequence (Q9HBW0 whole entry): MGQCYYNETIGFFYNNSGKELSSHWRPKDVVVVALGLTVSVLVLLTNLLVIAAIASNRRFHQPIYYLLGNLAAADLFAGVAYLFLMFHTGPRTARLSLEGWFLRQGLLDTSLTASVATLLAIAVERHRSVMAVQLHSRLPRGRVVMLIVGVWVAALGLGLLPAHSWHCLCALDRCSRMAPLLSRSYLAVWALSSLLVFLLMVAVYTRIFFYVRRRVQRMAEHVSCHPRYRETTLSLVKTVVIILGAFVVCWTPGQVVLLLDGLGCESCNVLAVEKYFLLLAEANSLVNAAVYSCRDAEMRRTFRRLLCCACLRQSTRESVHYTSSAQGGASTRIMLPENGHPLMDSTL

effect on LPA-induced receptor phosphorylation (LPA1 receptor [1]; 10 μM AG1478 30 min, then 1 μM LPA 15 min, LPA1 cells): markedly reduced (but did not abolish) | effect on LPA-induced receptor phosphorylation (LPA3 receptor [2]; 10 μM AG1478 30 min, then 1 μM LPA 15 min, LPA3 cells): markedly reduced (but did not abolish) | effect on LPA-induced receptor phosphorylation (LPA2 receptor [3]; 10 μM AG1478 30 min, then 1 μM LPA 15 min, LPA2 cells): markedly reduced (but did not abolish)
SMILES: COc1cc2ncnc(Nc3cccc(Cl)c3)c2cc1OC [AG1478]
effect on baseline phospho-ERK signal (ERK 1/2; 10 μM AG1478 30 min, cells expressing LPA1 receptors): did not alter it | effect on baseline phospho-ERK signal (ERK 1/2; 10 μM AG1478 30 min, cells overexpressing LPA2, statistically insignificant): decrease it | effect on baseline phospho-ERK signal (ERK 1/2; 10 μM AG1478 30 min, cells overexpressing LPA3, statistically significant): decrease it | effect on LPA- and EGF-induced ERK phosphorylation (ERK 1/2; 10 μM AG1478 30 min, then 1 μM LPA or 100 ng/ml EGF 5 min): clearly diminished the effect of both growth factors

EC50 (LPA1 receptor [4]; LPA1-overexpressing cells, read-out: EC50, increase in intracellular calcium concentration): 200 to 400 nM | calcium response (increase of the cation's concentration) (LPA1 receptor [4]; cells over-expressing LPA1): 450 to 600 nM | EC50 (wild-type C9 cells; read-out: EC50, increase in intracellular calcium concentration): 200 to 400 nM | time to maximum receptor phosphorylation (LPA1 receptor [1]; 1 μM agent, LPA1 cells): ≤ 15 min | concentration at which receptor phosphorylation saturates (LPA1 receptor [1]; 15 min incubation, LPA1-overexpressing cells): ~ 1 μM | EC50 (LPA1 receptor [1]; 15 min incubation, LPA1-overexpressing cells, read-out: EC50, receptor phosphorylation): 10 to 30 nM | calcium response (increase of the cation's concentration) (LPA2 receptor [6]; cells over-expressing LPA2): 450 to 600 nM | recovery of fluorescence at the membrane level after washing (LPA3 receptor [7]; [13]): only partially and also slowly | recovery of fluorescence at the membrane level after washing (LPA1 receptor [8]; [13]): recovered rapidly and completely | time to maximum receptor phosphorylation (LPA3 receptor [2]; 1 μM agent, LPA3 cells): ≤ 15 min | concentration at which receptor phosphorylation saturates (LPA3 receptor [2]; 15 min incubation, LPA3-overexpressing cells): ~ 1 μM | recovery of fluorescence at the membrane level after washing (LPA2 receptor [9]; [13]): slowly | receptor internalization (decrease in fluorescence at the plasma membrane, compared with other subtypes) (LPA2 receptor [9]; 1 μM agent, 30 or 60 min): much less intense | calcium response (increase of the cation's concentration) (LPA3 receptor [12]): ~ 300 nM | time to maximum receptor phosphorylation (LPA2 receptor [3]; 1 μM agent, LPA2 cells): ≤ 15 min | concentration-response curve, receptor phosphorylation (LPA2 receptor [3]; 15 min incubation, LPA2-overexpressing cells, shift to higher concentrations): no clear saturation was obtained
SMILES: CCCCCCCC/C=C\CCCCCCCC(=O)OC[C@@H](O)COP(=O)(O)O [LPA]
maximal calcium concentration increase (wild-type C9 cells): 150 to 200 nM | concentration giving maximum homologous desensitization (LPA2 receptor [5]): ~ 100 nM | increase in ERK phosphorylation (ERK 1/2; 1 μM LPA, 5 min, cells overexpressing LPA1-3): ~ 2 fold | LPA concentration response curve, intracellular calcium (LPA2 receptor [6]; LPA2-overexpressing cells, curve shifted to the right): no clear saturation was achieved at the concentrations tested | receptor internalization (fluorescence at the plasma membrane) (LPA3 receptor [7]; 1 μM agent, 30 or 60 min): markedly decreasing fluorescence at the plasma membrane level | receptor internalization (fluorescence at the plasma membrane) (LPA1 receptor [8]; 1 μM agent, 30 or 60 min): markedly decreasing fluorescence at the plasma membrane level | concentration giving maximum homologous desensitization (LPA1 receptor [10]): ~ 100 nM | concentration giving maximum homologous desensitization (LPA3 receptor [11]): ~ 100 nM

Reference: paper PMC4608732, “Phosphorylation and Internalization of Lysophosphatidic Acid Receptors LPA1, LPA2, and LPA3” (PLoS ONE, 2015)
